Measured values: ChEMBL document CHEMBL1141831, “Alertenone, a dimer of suberosenone from Alertigorgia sp” (J Nat Prod, 1999)
Values after ≈ are worked out from the molar mass of the structure shown.

Columns and labels:
A549 = experiment: Cytotoxicity against human A549 cells after 2 days by XTT assay; format: functional, cell-based; settings: A549, 48 h
[1] = Cytotoxicity against human LOX cells after 2 days by XTT assay; format: functional, cell-based; settings: 48 h
HOP-92 = experiment: Cytotoxicity against human HOP-92 cells after 2 days by XTT assay; format: functional, cell-based; settings: HOP-92, 48 h
SNB-19 = experiment: Cytotoxicity against human SNB-19 cells after 2 days by XTT assay; format: functional, cell-based; settings: SNB-19, 48 h
MCF7 = experiment: Cytotoxicity against human MCF7 cells after 2 days by XTT assay; format: functional, cell-based; settings: MCF7, 48 h
Malme-3M = experiment: Cytotoxicity against human MALME-3M cells after 2 days by XTT assay; format: functional, cell-based; settings: 48 h
SF-295 = experiment: Cytotoxicity against human SF-295 cells after 2 days by XTT assay; format: functional, cell-based; settings: SF-295, 48 h
M14 = experiment: Cytotoxicity against human M14 cells after 2 days by XTT assay; format: functional, cell-based; settings: M14, 48 h
OVCAR-3 = experiment: Cytotoxicity against human OVCAR-3 cells after 2 days by XTT assay; format: functional, cell-based; settings: OVCAR-3, 48 h
SF-539 = experiment: Cytotoxicity against human SF-539 cells after 2 days by XTT assay; format: functional, cell-based; settings: SF-539, 48 h
NCI-H522 = experiment: Antitumor activity against human NCI-H522 cells xenografted in mouse assessed as cell growth at 40 mg/kg by hollow-fiber assay relative to control; format: functional
U-251 = experiment: Antitumor activity against human U251 cells xenografted in mouse assessed as cell growth at 40 mg/kg by hollow-fiber assay relative to control; format: functional

SMILES | IC50 (A549) | IC50 [1] | IC50 (HOP-92) | IC50 (SNB-19) | IC50 (MCF7) | IC50 (Malme-3M) | IC50 (SF-295) | IC50 (M14) | IC50 (OVCAR-3) | IC50 (SF-539) | Activity (NCI-H522) | Activity (U-251)
C=C1C(=O)[C@H](C[C@@H]2C(=O)C[C@H]3[C@@H]4CC[C@H](C)[C@]23CC4(C)C)[C@H]2[C@@H]3CC[C@H](C)[C@]12CC3(C)C [ALERTENONE] | 40 µg/mL (≈ 91.6 µM) | > 100 µg/mL | 45 µg/mL (≈ 103 µM) | 45 µg/mL (≈ 103 µM) | 40 µg/mL (≈ 91.6 µM) | 40 µg/mL (≈ 91.6 µM) | 35 µg/mL (≈ 80.2 µM) | 40 µg/mL (≈ 91.6 µM) | 35 µg/mL (≈ 80.2 µM) | 35 µg/mL (≈ 80.2 µM) | – | –
C=C1C(=O)C[C@H]2[C@@H]3CC[C@H](C)[C@]12CC3(C)C [SUBEROSENONE] | 1.63 µg/mL (≈ 7.47 µM) | 0.006 µg/mL (≈ 0.0275 µM) | 0.11 µg/mL (≈ 0.504 µM) | 0.006 µg/mL (≈ 0.0275 µM) | 0.43 µg/mL (≈ 1.97 µM) | 0.008 µg/mL (≈ 0.0366 µM) | 0.03 µg/mL (≈ 0.137 µM) | 0.01 µg/mL (≈ 0.0458 µM) | 0.02 µg/mL (≈ 0.0916 µM) | 0.002 µg/mL (≈ 0.00916 µM) | 10% | 10%
